Test results published in ChEMBL document CHEMBL3132853, “Facile synthesis of a polyether-tethered dimeric berberine as a highly effective DNA-cleaving agent in the presence of Cu(ii) ion” (Medchemcomm, 2013).
Blank lines part the entries; values can stand above or below the compound they belong to. Active and inactive are the calls of the source. The rule behind the calls is not given here.

How the values were obtained:
Escherichia coli [1] = assay: Induction of Escherichia coli pBR322 DNA cleavage assessed as conversion of supercoiled form into open circular form after 5 hrs by agarose gel electrophoresis in presence of Cu2+
DNA [2] = assay: Binding affinity to calf thymus DNA; type: nucleic-acid assay; conditions: Bos taurus
Escherichia coli [3] = assay: Induction of Escherichia coli pBR322 DNA cleavage at 0.06 mM after 5 hrs by agarose gel electrophoresis in presence of Cu2+ and t-BuOH
Escherichia coli [4] = assay: Induction of Escherichia coli pBR322 DNA cleavage assessed as conversion of supercoiled form into linear form after 5 hrs by agarose gel electrophoresis in presence of Cu2+
Escherichia coli [5] = assay: Induction of Escherichia coli pBR322 DNA cleavage at Cu2+ to compound ratio >= 1 after 5 hrs by agarose gel electrophoresis
DNA [6] = assay: Binding affinity to calf thymus DNA in presence of Cu2+; type: nucleic-acid assay; conditions: Bos taurus
Escherichia coli [7] = assay: Induction of Escherichia coli pBR322 DNA cleavage at 0.06 mM after 5 hrs by agarose gel electrophoresis in presence of Cu2+ and KI
Escherichia coli [8] = assay: Induction of Escherichia coli pBR322 DNA cleavage at 0.06 mM after 5 hrs by agarose gel electrophoresis in presence of Cu2+ and TMP
Escherichia coli [9] = assay: Induction of Escherichia coli pBR322 DNA cleavage assessed as conversion of supercoiled form into open circular form after 5 hrs by agarose gel electrophoresis in presence of Mn2+
Escherichia coli [10] = assay: Induction of Escherichia coli pBR322 DNA cleavage assessed as conversion of supercoiled form into open circular form after 5 hrs by agarose gel electrophoresis in presence of Co2+
Escherichia coli [11] = assay: Induction of Escherichia coli pBR322 DNA cleavage assessed as conversion of supercoiled form into open circular form after 5 hrs by agarose gel electrophoresis in presence of Ni2+
Escherichia coli [12] = assay: Induction of Escherichia coli pBR322 DNA cleavage assessed as maximal catalytic rate constant at 0.12 mM by agarose gel electrophoresis in presence of Cu2+
Escherichia coli [13] = assay: Induction of Escherichia coli pBR322 DNA cleavage at 0.01 to 0.08 mM after 5 hrs by agarose gel electrophoresis in presence of Cu2+
Escherichia coli [14] = assay: Induction of Escherichia coli pBR322 DNA cleavage at 0.06 mM after 5 hrs by agarose gel electrophoresis in presence of Cu2+ and DMSO
Escherichia coli [15] = assay: Induction of Escherichia coli pBR322 DNA cleavage assessed as conversion of supercoiled form into open circular form after 5 hrs by agarose gel electrophoresis in presence of Mg2+
Escherichia coli [16] = assay: Induction of Escherichia coli pBR322 DNA cleavage assessed as conversion of supercoiled form into open circular form after 5 hrs by agarose gel electrophoresis in presence of Zn2+
Escherichia coli [17] = assay: Induction of Escherichia coli pBR322 DNA cleavage at 0.08 mM after 5 hrs by agarose gel electrophoresis

Activity (Escherichia coli [1]): inactive | K (DNA [2]): 1.46 ×10³ /M
Compound: COCCOCCOCCOCCOc1c(OC)ccc2cc3[n+](cc12)CCc1cc2c(cc1-3)OCO2

K (DNA [2]): 8.99 ×10³ /M
Compound: COc1ccc2cc3[n+](cc2c1OC)CCc1cc2c(cc1-3)OCO2

Activity (Escherichia coli [3]): Active | Activity (Escherichia coli [4]): Active | Activity (Escherichia coli [5]): Active | K (DNA [6]): 2.38 ×10⁴ /M | Activity (Escherichia coli [7]): inactive | Activity (Escherichia coli [8]): Active | Activity (Escherichia coli [1]): Active | Activity (Escherichia coli [9]): inactive | K (DNA [2]): 1.51 ×10⁴ /M | Activity (Escherichia coli [10]): inactive | Activity (Escherichia coli [11]): inactive | Kmax (Escherichia coli [12]): 125 h⁻¹ | Activity (Escherichia coli [13]): Active | Activity (Escherichia coli [14]): Active | Activity (Escherichia coli [15]): inactive | Activity (Escherichia coli [16]): inactive | Activity (Escherichia coli [17]): inactive
Compound: COc1ccc2cc3[n+](cc2c1OCCOCCOCCOCCOc1c(OC)ccc2cc4[n+](cc12)CCc1cc2c(cc1-4)OCO2)CCc1cc2c(cc1-3)OCO2

Compound: COc1ccc2cc3[n+](cc2c1OCCCOc1c(OC)ccc2cc4[n+](cc12)CCc1cc2c(cc1-4)OCO2)CCc1cc2c(cc1-3)OCO2
Activity (Escherichia coli [1]): inactive | K (DNA [2]): 1.15 ×10⁵ /M
